Data set [1] has as its system lymphomas. The following applies: mice; cited from earlier work.
The test system of data set [2] is Molt-4 cells. Description: Trypan blue exclusion test, Molt-4. Type of data set: cell-based, human. The following applies: 3 mM, 1 hour. The method, then:
Cell death was determined by trypan blue exclusion. […] Alternatively, cytotoxicity was determined using hemacolor staining. […] In order to test the correlation between cellular ATP levels and the release of hexokinase from mitochondrial fraction different cancer cells, namely Molt-4 cells, BCL-1 leukemic cells and B16 melanoma tumors were exposed to various methyl jasmonate concentrations. […] CT26 and Molt-4 cells were then seeded in 24 well plates. CT26 cells were allowed to adhere over night. Cells were exposed to methyl jasmonate (MJ; 3 mM) for 1 hour. Trypan blue exclusion test was performed and cells were counted.

Data set [3] deals with CT26 cells transfected with pcDNA3-HKII or pcDNA3. The method, then: Cell death was determined by trypan blue exclusion. […] Alternatively, cytotoxicity was determined using hemacolor staining. Upon completion of a given experiment, cells were stained and the percentage of dead (detached) cells was determined spectrophotometrically.
CT26 cells were transfected with pcDNA3-HKII or pcDNA3, using FuGene HD transfection reagent (Roche, Basel, Switzerland), according to the manufacturer's instruction followed by selection using G418.
To examine the effect of hexokinase over-expression on methyl jasmonate action, CT26 cells were transfected with plasmids, pcDNA3-HKII or pcDNA3, encoding for hexokinase II over-expression and a control plasmid, respectively (Zaid, 2005). Cells were seeded in 96-well plates and allowed to adhere. Cells were exposed to methyl jasmonate for 60 minutes prior to ATP determination (FIG. […] 9B).

Data set [4] relates to mitochondrial fraction of mouse liver. As to the kind of experiment: Mitochondrial swelling assay, mouse liver. Particulars: 1 mM. Type of data set: biochemical. The method, then: Freshly isolated mitochondrial fraction was washed with extraction buffer to remove EDTA and resuspended in swelling buffer (Mannitol 220 mM, Sucrose 70 mM, Tris, pH 7.2, 150 mM, KH2PO4, pH 7.2, 0.2 mM; 0.2 mg in 100 μL) freshly supplemented with potassium succinate, pH 7.2, 5 mM. Every component was sodium-free. Optical density was monitored at the wave length of 540 nm for 2-5 minutes before the addition of the examined reagents, e.g. methyl jasmonate, and for additional 20 minutes afterwards.
In order to examine the consistency of the relationship between the ability of methyl jasmonate to detach bound hexokinase and mitochondrial damage, methyl jasmonate was tested in mouse brain in comparison to mouse liver. The comparison was performed due to known differences of mitochondrial hexokinase content between mouse brain vs. its liver. It is well established in the art that brain mitochondrial fraction is rich in bound hexokinase, while liver mitochondrial fraction is essentially devoid of it (Wilson, 1995). […] Mitochondrial fractions were incubated for either 10, 30 or 60 minutes at 37° C. The activity of unbound hexokinase was measured and compared to the activity of spontaneously (control) detached hexokinase. Consequently, the ability of methyl jasmonate to induce swelling in mitochondrial fraction isolated from mouse brain and liver was tested.

In data set [5] the test system is HKI and HKII (mitochondrial fraction of CT-26 tumor). As to the kind of experiment: Western blot of supernatants with anti-HKI and anti-HKII, CT-26 tumor mitochondrial fraction. It is filed as biochemical, murine. The method, then:
For analysis of hexokinase levels, the experiments were performed similarly to hexokinase detachment assay described above, and unbound hexokinase in the supernatant fraction was extracted as described in Fingrut (2005). Samples were separated by sodium dodecylsulfate-polyacrylamide gel (7%) electrophoresis followed by immunoblotting. The blots were probed with specific anti-HKI or anti-HKII antibodies (1:300, Santa-Cruz Biotechnology, CA, USA). Hexokinase-antibody complexes were stained with HRP-conjugated antibody (1:10,000, Santa-Cruz Biotechnology, CA, USA). Enhanced chemiluminescence (ECL) reagent (Biological Industries, Beit Haemek, Israel) was added, and the blots were exposed to ECL film (Eastman Kodak, Rochester, N.Y., USA). In order to verify physical detachment of mitochondrial hexokinase, similar preparations were separated on SDS-PAGE, electroblotted to nitrocellulose membrane and probed with anti-HKI and anti-HKII antibodies.

Data set [6] concerns the target T1, mitochondria-bound hexokinase (mitochondrial fraction isolated from mouse brain) (Mus musculus, UniProt P17710).
T1 construct: detach hexokinase from mitochondrial fraction isolated from mouse brain; from tissue; host or cells: mouse brain (mitochondrial fraction)
Description: Hexokinase detachment assay, mitochondrial fraction of mouse brain. It is filed as biochemical.
Description: To determine the amount of hexokinase detached from the mitochondrial fraction by different agents, mitochondria were incubated with the agent of interest and pelleted by centrifugation. Activity of hexokinase in the supernatant (i.e., activity of the detached hexokinase) was determined spectrophotometrically at 340 nm. The reaction couples the ADP formation by hexokinase, consuming the ADP for pyruvate formation by pyruvate kinase, and reducing the pyruvate with NADH by lactate dehydrogenase. Briefly, mitochondria were suspended in incubation buffer (HEPES pH 7.4 20 mM, Sucrose 0.25M, Glucose 10 mM, KCl5 mM, MgCl2 10 mM; 0.2 mg/test, 100 μL/test) and incubated as described below. Mitochondria-bound hexokinase was precipitated by centrifugation at 20,000 g for 10 minutes at 4° C. The activity of hexokinase in the supernatant fraction was assayed in reaction buffer (250 μL; HEPES pH 7.2 20 mM, MgCl2 5 mM, KCl 5 mM, glucose 10 mM) freshly supplemented with pyruvate kinase (1 U/ml), lactate dehydrogenase (1 U/ml), ATP (1 mM), phospho(enol)pyruvate (1 mM), NADH (0.18 mg/ml). […] Mitochondrial fractions were incubated for either 10, 30 or 60 minutes at 37° C. The activity of unbound hexokinase was measured and compared to the activity of spontaneously (control) detached hexokinase.

Data set [7] deals with Molt-4 cells. Description: Cellular ATP levels (CellTiter-Glo), Molt-4. It is filed as cell-based, human. The following applies: 60 minutes of exposure, various concentrations. The method, then:
The CellTiter-Glo™ Luminescent Cell Viability Assay (Promega, Madison, Wis., U.S.A.) was employed (Fingrut, 2005). Upon completion of a given experiment, plates were equilibrated to room temperature. CellTiter-Glo™ reagent containing luciferin and luciferase was added to each well and the plates were mixed on an orbital shaker for 2 minutes to induce cell lysis. In the presence of ATP, Mg^2+ and molecular oxygen, mono-oxidation of luciferin is catalyzed by luciferase, generating a luminescence signal. Cells were then incubated for 10 minutes at room temperature to stabilize the luminescence signal. Luminescence was recorded using Kodak digital science—Image station 440 CD. Luminescence is directly proportional to ATP concentration. ATP depletion (% of control) was calculated in the following way: {(luminescence of control cells−luminescence of drug-treated cells)/luminescence of control cells}×100. In order to test the correlation between cellular ATP levels and the release of hexokinase from mitochondrial fraction different cancer cells, namely Molt-4 cells, BCL-1 leukemic cells and B16 melanoma tumors were exposed to various methyl jasmonate concentrations. […] CT26 and Molt-4 cells were then seeded in 24 well plates. CT26 cells were allowed to adhere over night. Cells were exposed to methyl jasmonate (MJ; 3 mM) for 1 hour. Trypan blue exclusion test was performed and cells were counted.

Data set [8] concerns the target T2, hexokinase-I-Voltage dependent anion channel interactions (Rattus norvegicus, UniProt P05708).
T2 construct: from tissue; host or cells: HK-I from rat brain mitochondria; VDAC from rat liver mitochondria
As to the kind of experiment: Voltage-dependent anion channel recording in planar lipid bilayer after addition of hexokinase-I. Type of data set: biochemical. The following applies: 3 mM, HK-I 20 mU/ml, recorded after 10 minutes. The method, then: Currents were measured with respect to the trans side of the membrane (ground).

The subject of data set [9] is CT26 cells transfected with pcDNA3-HKII or pcDNA3. Description: ATP depletion in CT26 cells over-expressing hexokinase II. Particulars: 60 minutes exposure. It is filed as cell-based, murine. The method, then:
The CellTiter-Glo™ Luminescent Cell Viability Assay (Promega, Madison, Wis., U.S.A.) was employed (Fingrut, 2005). Upon completion of a given experiment, plates were equilibrated to room temperature. CellTiter-Glo™ reagent containing luciferin and luciferase was added to each well and the plates were mixed on an orbital shaker for 2 minutes to induce cell lysis. In the presence of ATP, Mg^2+ and molecular oxygen, mono-oxidation of luciferin is catalyzed by luciferase, generating a luminescence signal. Cells were then incubated for 10 minutes at room temperature to stabilize the luminescence signal. Luminescence was recorded using Kodak digital science—Image station 440 CD. Luminescence is directly proportional to ATP concentration. ATP depletion (% of control) was calculated in the following way: {(luminescence of control cells−luminescence of drug-treated cells)/luminescence of control cells}×100.

T2 sequence (P05708 whole entry): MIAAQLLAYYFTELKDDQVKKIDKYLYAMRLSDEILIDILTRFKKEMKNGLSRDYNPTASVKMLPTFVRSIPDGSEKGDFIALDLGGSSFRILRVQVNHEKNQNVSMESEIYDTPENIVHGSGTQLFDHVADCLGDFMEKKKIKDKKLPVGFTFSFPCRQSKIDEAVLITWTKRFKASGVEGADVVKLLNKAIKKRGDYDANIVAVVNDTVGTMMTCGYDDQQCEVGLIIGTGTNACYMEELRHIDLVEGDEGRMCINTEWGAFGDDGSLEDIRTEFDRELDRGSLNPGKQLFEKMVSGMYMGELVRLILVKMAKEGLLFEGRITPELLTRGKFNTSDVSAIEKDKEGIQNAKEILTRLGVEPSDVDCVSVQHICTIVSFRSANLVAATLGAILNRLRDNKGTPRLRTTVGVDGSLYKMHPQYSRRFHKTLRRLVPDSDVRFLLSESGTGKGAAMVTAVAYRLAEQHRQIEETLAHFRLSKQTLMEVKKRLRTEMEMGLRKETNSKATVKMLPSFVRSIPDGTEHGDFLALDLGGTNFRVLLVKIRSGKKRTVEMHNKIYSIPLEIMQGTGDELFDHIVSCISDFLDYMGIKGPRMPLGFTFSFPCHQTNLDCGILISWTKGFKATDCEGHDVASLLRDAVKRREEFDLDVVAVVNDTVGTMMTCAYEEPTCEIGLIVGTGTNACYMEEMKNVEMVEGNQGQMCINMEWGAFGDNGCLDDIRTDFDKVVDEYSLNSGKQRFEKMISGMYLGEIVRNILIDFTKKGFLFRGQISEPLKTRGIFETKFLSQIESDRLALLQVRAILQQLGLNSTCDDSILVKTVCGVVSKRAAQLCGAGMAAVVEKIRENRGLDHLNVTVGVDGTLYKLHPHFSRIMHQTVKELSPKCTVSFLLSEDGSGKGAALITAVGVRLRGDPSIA
T1 sequence (P17710 1-918 isoform P17710-3): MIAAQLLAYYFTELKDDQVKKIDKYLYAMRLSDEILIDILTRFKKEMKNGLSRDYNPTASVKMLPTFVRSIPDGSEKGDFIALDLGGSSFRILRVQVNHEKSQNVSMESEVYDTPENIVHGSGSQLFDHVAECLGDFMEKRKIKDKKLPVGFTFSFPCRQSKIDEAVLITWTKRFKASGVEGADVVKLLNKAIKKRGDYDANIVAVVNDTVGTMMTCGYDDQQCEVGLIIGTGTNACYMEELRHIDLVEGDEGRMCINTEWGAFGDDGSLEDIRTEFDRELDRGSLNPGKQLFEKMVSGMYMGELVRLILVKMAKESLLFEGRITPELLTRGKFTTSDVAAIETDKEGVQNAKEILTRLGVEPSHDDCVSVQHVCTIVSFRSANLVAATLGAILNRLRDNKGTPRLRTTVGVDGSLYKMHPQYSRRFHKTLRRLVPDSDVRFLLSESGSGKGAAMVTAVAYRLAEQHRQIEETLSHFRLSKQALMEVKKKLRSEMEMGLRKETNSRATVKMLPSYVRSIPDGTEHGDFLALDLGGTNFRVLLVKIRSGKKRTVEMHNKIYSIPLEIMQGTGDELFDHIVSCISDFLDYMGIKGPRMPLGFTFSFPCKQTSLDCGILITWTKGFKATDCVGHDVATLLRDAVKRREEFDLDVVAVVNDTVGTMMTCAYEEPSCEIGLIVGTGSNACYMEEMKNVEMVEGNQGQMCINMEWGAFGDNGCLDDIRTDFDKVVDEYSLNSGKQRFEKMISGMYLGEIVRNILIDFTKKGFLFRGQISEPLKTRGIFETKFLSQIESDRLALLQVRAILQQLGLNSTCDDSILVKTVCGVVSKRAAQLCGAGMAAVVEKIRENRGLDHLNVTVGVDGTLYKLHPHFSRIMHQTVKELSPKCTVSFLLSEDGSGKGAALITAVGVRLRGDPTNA

For the compound `CC/C=C\CC1C(=O)CCC1CC(=O)OC` (stereo not drawn) [methyl jasmonate], the “prevention of the development of lymphomas” value in data set [1] is “effective in preventing the development of lymphomas in mice”. Also, in data set [2], the “sensitivity of Molt-4 relative to CT26 cells” value is reported as “showed increased sensitivity with respect to CT26 tumor cells”. The “live/dead cells by Trypan blue exclusion” value in data set [2] (Molt-4) was “still alive after 60 minutes”. Moreover, in [3], the “cytotoxicity (hemacolor), hexokinase II over-expressing vs. control cells” value was “decreased in cells with higher expression of hexokinase II”. Further, the “mitochondrial swelling (optical density at 540 nm)” value in data set [4] is listed as “not in liver”. Besides, the “physical release of HKI and HKII into supernatant (immunoblot)” value in [5] is “release of both HKI and HKII were demonstrated”. Besides, the “detachment of hexokinase, time dependence” value in [6] (3 mM, 10, 30 or 60 minutes at 37° C.) was “time-dependent”. Further, the “detachment of hexokinase, dose dependence” value in [6] (30 minutes of incubation) is listed as “dose dependent”. Also, the “cellular ATP level” value in data set [7] was “significant and dose-dependent decrease of cellular ATP”. Moreover, the “effect on HK-I-induced low-conducting state of voltage-dependent anion channel” value in data set [8] (−20 mV) was “reversed by the addition of methyl jasmonate”. Further, the “effect on HK-I-closed voltage-dependent anion channel” value in [8] (−40 mV) is given as “led to re-opening of HK-I-closed channels”. Moreover, the “depletion of cellular ATP levels, hexokinase II over-expressing vs. control cells” value in data set [9] is “decreased in cells with higher expression of hexokinase II”.

Values taken from patent US8349553B2, “Jasmonate based assays for identifying compounds that selectively inhibit mitochondrial bound hexokinases” (Ramot at Tel Aviv University Ltd., priority 2007, dated 2013).
